According to ChEMBL document CHEMBL1201862, “PubChem BioAssay data set” (2004):
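Tested at 5 concentrations; 48 h exposure; 96-well plates; endpoints linearly interpolated, else capped at highest concentration. Here, GI50 denotes the concentration required for 50% inhibition of growth.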 The source made the active and inactive calls. No stated cut-off is given here; in the data, active = GI50 up to about 1.1 µM and inactive = higher. Residues, ends and D or L forms follow the SMILES beside them. *: point of attachment. Boc = CC(C)(C)OC(=O)*

Key:
Assay in all cases: NCI-60 cell line screen, 48 h
UO-31 = test system: UO-31
T47D = test system: T47D
NCI-H460 = test system: NCI-H460
SK-MEL-2 = test system: SK-MEL-2
LOX IMVI = test system: LOX IMVI
MDA-MB-435 = test system: MDA-MB-435
SR = test system: SR
SK-MEL-5 = test system: SK-MEL-5
HOP-92 = test system: HOP-92
A498 = test system: A498
CAKI-1 = test system: CAKI-1
MCF7 = test system: MCF7
OVCAR-8 = test system: OVCAR-8
A549 = test system: A549
PC-3 = test system: PC-3
ACHN = test system: ACHN
NCI-H522 = test system: NCI-H522
SK-MEL-28 = test system: SK-MEL-28
MOLT-4 = test system: MOLT-4
HCC 2998 = test system: HCC 2998

SMILES	GI50 (UO-31)	GI50 (T47D)	GI50 (NCI-H460)	GI50 (SK-MEL-2)	GI50 (LOX IMVI)	GI50 (MDA-MB-435)	GI50 (SR)	GI50 (SK-MEL-5)	GI50 (HOP-92)	GI50 (A498)	GI50 (CAKI-1)	GI50 (MCF7)	GI50 (OVCAR-8)	GI50 (A549)	GI50 (PC-3)	GI50 (ACHN)	GI50 (NCI-H522)	GI50 (SK-MEL-28)	GI50 (MOLT-4)	GI50 (HCC 2998)
Nc1nc(N)c(Cn2ccnc2)c(O)n1	> 100 µM (inactive)	> 100 µM (inactive)	> 100 µM (inactive)	> 100 µM (inactive)	> 100 µM (inactive)	> 100 µM (inactive)	> 100 µM (inactive)	> 100 µM (inactive)	> 100 µM (inactive)	> 100 µM (inactive)	> 100 µM (inactive)	> 100 µM (inactive)	> 100 µM (inactive)	> 100 µM (inactive)	> 100 µM (inactive)	> 100 µM (inactive)	> 100 µM (inactive)	–	–	–
COc1cc(Nc2nc3c(N)cc(C(F)(F)F)cc3nc2-c2ccccc2)cc(OC)c1OC	> 100 µM (inactive)	14.1 µM (inactive)	37.2 µM (inactive)	51.4 µM (inactive)	72.1 µM (inactive)	> 69.2 µM (inactive)	> 87.5 µM (inactive)	19.1 µM (inactive)	1.39 µM (inactive)	–	45.4 µM (inactive)	67.3 µM (inactive)	24.5 µM (inactive)	49.5 µM (inactive)	37.2 µM (inactive)	42.9 µM (inactive)	28.4 µM (inactive)	57 µM (inactive)	> 100 µM (inactive)	> 100 µM (inactive)
O=[N+]([O-])/C=C/COCc1cc2c(cc1Br)OCO2	17.2 µM (inactive)	16.7 µM (inactive)	29.9 µM (inactive)	–	33.8 µM (inactive)	13.9 µM (inactive)	23.4 µM (inactive)	20.2 µM (inactive)	23.2 µM (inactive)	27.6 µM (inactive)	20.6 µM (inactive)	17.2 µM (inactive)	31.9 µM (inactive)	21.7 µM (inactive)	13 µM (inactive)	16.4 µM (inactive)	22 µM (inactive)	11.6 µM (inactive)	48.3 µM (inactive)	16.7 µM (inactive)
C=CCOC1=C(OC(C)=O)C(=O)OC1C1COC(C)(C)O1 (stereo not drawn)	28.1 µM (inactive)	23.4 µM (inactive)	> 62.5 µM (inactive)	> 52.6 µM (inactive)	18.1 µM (inactive)	34.3 µM (inactive)	5.58 µM (inactive)	44.6 µM (inactive)	–	> 89.5 µM (inactive)	37.7 µM (inactive)	28.2 µM (inactive)	28.6 µM (inactive)	> 73.5 µM (inactive)	> 57.3 µM (inactive)	21.6 µM (inactive)	17.5 µM (inactive)	17.3 µM (inactive)	18.4 µM (inactive)	36.4 µM (inactive)
Cc1nc2c(=O)n(-c3ccccc3)c(=O)n(-c3ccccc3)c2o1	> 100 µM (inactive)	> 100 µM (inactive)	> 100 µM (inactive)	> 100 µM (inactive)	> 100 µM (inactive)	> 100 µM (inactive)	> 100 µM (inactive)	> 100 µM (inactive)	> 100 µM (inactive)	> 100 µM (inactive)	> 100 µM (inactive)	> 100 µM (inactive)	> 100 µM (inactive)	> 100 µM (inactive)	> 100 µM (inactive)	> 100 µM (inactive)	> 100 µM (inactive)	–	> 100 µM (inactive)	> 100 µM (inactive)
S=P(C1CCCCC1)(C1CCCCC1)C(c1cccnc1)N1CCCC1 (stereo not drawn)	–	31.9 µM (inactive)	20.2 µM (inactive)	20.9 µM (inactive)	7.18 µM (inactive)	18.4 µM (inactive)	25.5 µM (inactive)	16.5 µM (inactive)	23.5 µM (inactive)	27.7 µM (inactive)	17.4 µM (inactive)	> 100 µM (inactive)	23.8 µM (inactive)	17.8 µM (inactive)	18.3 µM (inactive)	20.3 µM (inactive)	20.6 µM (inactive)	> 100 µM (inactive)	24 µM (inactive)	–
NNC(=O)CC(=O)Nc1ccc(C(=O)O)cc1	> 100 µM (inactive)	> 100 µM (inactive)	> 100 µM (inactive)	> 100 µM (inactive)	> 100 µM (inactive)	> 100 µM (inactive)	> 100 µM (inactive)	> 100 µM (inactive)	> 100 µM (inactive)	–	> 100 µM (inactive)	> 100 µM (inactive)	> 100 µM (inactive)	> 100 µM (inactive)	> 100 µM (inactive)	> 100 µM (inactive)	> 100 µM (inactive)	–	> 100 µM (inactive)	–
COC(=O)CN(CC(=O)NCCNC(=O)OC(C)(C)C)C1CCCCC1N(CC(=O)OC)CC(=O)OC (stereo not drawn)	> 100 µM (inactive)	> 100 µM (inactive)	> 100 µM (inactive)	> 100 µM (inactive)	> 100 µM (inactive)	> 100 µM (inactive)	> 100 µM (inactive)	> 100 µM (inactive)	–	> 100 µM (inactive)	> 100 µM (inactive)	> 100 µM (inactive)	> 100 µM (inactive)	> 100 µM (inactive)	> 100 µM (inactive)	> 100 µM (inactive)	> 100 µM (inactive)	> 100 µM (inactive)	> 100 µM (inactive)	> 100 µM (inactive)
O=[N+]([O-])c1ccc(Cl)c(CNc2ncnc3c2ncn3C2CCCCO2)c1 (stereo not drawn)	22 µM (inactive)	55.3 µM (inactive)	15.3 µM (inactive)	28.5 µM (inactive)	56.4 µM (inactive)	13.9 µM (inactive)	18.5 µM (inactive)	21.7 µM (inactive)	42.3 µM (inactive)	12.4 µM (inactive)	> 100 µM (inactive)	17.1 µM (inactive)	53.6 µM (inactive)	41.7 µM (inactive)	39.3 µM (inactive)	44.9 µM (inactive)	32.8 µM (inactive)	89.5 µM (inactive)	26.1 µM (inactive)	–
Cc1cc(NS(=O)(=O)c2ccc(NC(=O)c3cccc4c(NNc5ccc(S(N)(=O)=O)cc5)c5ccccc5nc34)cc2)no1	36.1 µM (inactive)	26 µM (inactive)	34.9 µM (inactive)	24 µM (inactive)	30.5 µM (inactive)	75.7 µM (inactive)	35.8 µM (inactive)	39.5 µM (inactive)	22.7 µM (inactive)	–	> 100 µM (inactive)	81.3 µM (inactive)	47.9 µM (inactive)	> 100 µM (inactive)	33.7 µM (inactive)	39 µM (inactive)	25 µM (inactive)	35.2 µM (inactive)	31 µM (inactive)	27.3 µM (inactive)
CC(=O)/N=C1/N(/C=C2\C(=O)Oc3ccccc3C2=O)C(=O)/C(=C/c2ccccc2Cl)N1C	–	> 100 µM (inactive)	> 100 µM (inactive)	> 100 µM (inactive)	> 100 µM (inactive)	> 100 µM (inactive)	69.3 µM (inactive)	48 µM (inactive)	–	0.564 µM (active)	> 100 µM (inactive)	> 100 µM (inactive)	> 100 µM (inactive)	> 100 µM (inactive)	> 100 µM (inactive)	> 100 µM (inactive)	> 100 µM (inactive)	> 100 µM (inactive)	> 100 µM (inactive)	> 100 µM (inactive)
C1CCC(CC2CCC(NC3=NCCO3)CC2)CC1 (stereo not drawn)	19.9 µM (inactive)	24.4 µM (inactive)	20.2 µM (inactive)	18.4 µM (inactive)	16.1 µM (inactive)	17.4 µM (inactive)	24.4 µM (inactive)	19.5 µM (inactive)	–	26 µM (inactive)	24.5 µM (inactive)	17.5 µM (inactive)	17.1 µM (inactive)	32.8 µM (inactive)	15.8 µM (inactive)	19.5 µM (inactive)	22.2 µM (inactive)	18.1 µM (inactive)	21.6 µM (inactive)	20.7 µM (inactive)
COc1ccc(Cc2ccc3nc(O)cc(C)c3c2)cc1S(=O)(=O)O	> 100 µM (inactive)	> 100 µM (inactive)	> 100 µM (inactive)	> 100 µM (inactive)	> 100 µM (inactive)	> 100 µM (inactive)	> 100 µM (inactive)	> 100 µM (inactive)	> 100 µM (inactive)	> 100 µM (inactive)	> 100 µM (inactive)	> 100 µM (inactive)	> 100 µM (inactive)	> 100 µM (inactive)	> 100 µM (inactive)	> 100 µM (inactive)	> 100 µM (inactive)	> 100 µM (inactive)	> 100 µM (inactive)	–
COC(=O)C(Cc1c[nH]c2ccccc12)NC(=O)C(Cc1c[nH]c2ccccc12)NC(=O)C(Cc1c[nH]c2ccccc12)NC(=O)C(Cc1c[nH]c2ccccc12)NC(=O)OC(C)(C)C (stereo not drawn) (Boc-WWWW-OMe; configuration not given here)	89.7 µM (inactive)	19.7 µM (inactive)	24.9 µM (inactive)	–	12.7 µM (inactive)	23.4 µM (inactive)	4.51 µM (inactive)	34.5 µM (inactive)	–	–	44.3 µM (inactive)	< 0.01 µM (active)	26.9 µM (inactive)	39.4 µM (inactive)	19.5 µM (inactive)	57.5 µM (inactive)	25.4 µM (inactive)	18.2 µM (inactive)	3.85 µM (inactive)	20.5 µM (inactive)
